# Measurements taken from paper PMC9814900 (Communications Chemistry, 2022).
# Numbered stars: 1 amine (or outer) side, 2 acyl side, 3 side chain; on linkers, the order of the positions; unused ones are H or OH. Bridge positions count the residues as written; N and C are the ends. Peptide text beside a SMILES is read from it. C6F4(1,4-diyl) = Fc1c(F)c([*:2])c(F)c(F)c1[*:1]
# Biological target: T1, SUMO-25-109MDM2 (Homo sapiens, UniProt Q00987)
# T1 construct: the ^25-109MDM2 gene was purchased from Addgene; made in house; host or cells: E. coli Rosetta (DE3) pLysS
# Test: In-solution competition assay by biolayer interferometry (BLI)
# Type: binding
# Conditions: not given
row,Compound,Kd
1,CC(C)C[C@H](NC(=O)[C@H](C)NC(=O)[C@H](Cc1c[nH]c2ccccc12)NC(=O)[C@H](Cc1ccc(O)cc1)NC(=O)[C@H](CCC(=O)O)NC(=O)[C@H](C)NC(=O)[C@H](Cc1ccccc1)NC(=O)[C@H](CO)NC(=O)[C@@H](N)[C@@H](C)O)C(=O)N[C@@H](CC(C)C)C(=O)N[C@@H](CO)C(=O)N[C@@H](C)C(N)=O [Peptide 8] (H-TSFAEYWALLSA-NH2),0.7 ± 0.5 nM
2,"CC(C)C[C@H](NC(=O)[C@@H]1CSc2c(F)c(F)c(c(F)c2F)SC[C@H](NC(=O)[C@H](C)NC(=O)[C@H](Cc2ccccc2)NC(=O)[C@H](CO)NC(=O)[C@@H](N)[C@@H](C)O)C(=O)N[C@@H](Cc2ccc(O)cc2)C(=O)N[C@@H](Cc2c[nH]c3ccccc23)C(=O)N[C@@H](CC(N)=O)C(=O)N1)C(=O)N[C@@H](CO)C(=O)N1CCC[C@H]1C(N)=O [Peptide 13] (H-TSFACYWNCLSP-NH2; linker 5-9 via C6F4(1,4-diyl))",36 ± 8.5 nM

# Same assay, conditions: Figs 3-5; peptide pre-incubated 30 min with ~50 or ~100 nM SUMO-25-109MDM2 in PBS, 0.05% Tween-20, 1 mg/mL BSA; sensor loaded with Biotin-PEG4-p53(15-29); 30 °C; response after 2 min; read-out: KD, competition assay using BLI
row,Compound,Kd
1,"CC(C)C[C@H](NC(=O)[C@H](CC(N)=O)NC(=O)[C@H](Cc1c[nH]c2ccccc12)NC(=O)[C@@H]1CSc2c(F)c(F)c(c(F)c2F)SC[C@H](NC(=O)[C@@H](N)[C@@H](C)O)C(=O)N[C@@H](Cc2ccccc2)C(=O)N[C@@H](C)C(=O)N[C@@H](CCC(=O)O)C(=O)N1)C(=O)N[C@@H](CC(C)C)C(=O)N[C@@H](CO)C(=O)N1CCC[C@H]1C(N)=O [Peptide 10] (H-TCFAECWNLLSP-NH2; linker 2-6 via C6F4(1,4-diyl))",449 ± 57 nM
2,"CC(C)C[C@H](NC(=O)[C@H](CC(N)=O)NC(=O)[C@@H]1CSc2c(F)c(F)c(c(F)c2F)SC[C@H](NC(=O)[C@H](CO)NC(=O)[C@@H](N)[C@@H](C)O)C(=O)N[C@@H](C)C(=O)N[C@@H](CCC(=O)O)C(=O)N[C@@H](Cc2ccc(O)cc2)C(=O)N1)C(=O)N[C@@H](CC(C)C)C(=O)N[C@@H](CO)C(=O)N1CCC[C@H]1C(N)=O [Peptide 11] (H-TSCAEYCNLLSP-NH2; linker 3-7 via C6F4(1,4-diyl))",1620 ± 263 nM
3,"CC(C)C[C@@H]1NC(=O)[C@H](C)NC(=O)[C@@H](NC(=O)[C@H](Cc2c[nH]c3ccccc23)NC(=O)[C@H](Cc2ccc(O)cc2)NC(=O)[C@H](CCC(=O)O)NC(=O)[C@H](C)NC(=O)[C@H](Cc2ccccc2)NC(=O)[C@H](CO)NC(=O)[C@@H](N)[C@@H](C)O)CSc2c(F)c(F)c(c(F)c2F)SC[C@@H](C(N)=O)NC(=O)[C@H](CO)NC1=O [Peptide 40] (H-TSFAEYWCALSC-NH2; linker 8-12 via C6F4(1,4-diyl))",0.7 ± 0.5 nM
4,CC(C)C[C@H](NC(=O)[C@H](CC(N)=O)NC(=O)[C@H](Cc1c[nH]c2ccccc12)NC(=O)[C@H](C)NC(=O)[C@H](CCC(=O)O)NC(=O)[C@H](C)NC(=O)[C@H](Cc1ccccc1)NC(=O)[C@H](CO)NC(=O)[C@@H](N)[C@@H](C)O)C(=O)N[C@@H](C)C(=O)N[C@@H](CO)C(=O)N1CCC[C@H]1C(N)=O [Peptide 6] (H-TSFAEAWNLASP-NH2),1440 ± 390 nM

# Same assay, conditions: supplementary binding validation; N=1; ~250 nM SUMO-25-109MDM2; read-out: KD, competition BLI assay
row,Compound,Kd
1,"CC(C)C[C@H](NC(=O)[C@H](CC(N)=O)NC(=O)[C@H](Cc1c[nH]c2ccccc12)NC(=O)[C@H](Cc1ccc(O)cc1)NC(=O)[C@@H]1CSc2c(F)c(F)c(c(F)c2F)SC[C@H](N)C(=O)N[C@@H](CO)C(=O)N[C@@H](Cc2ccccc2)C(=O)N[C@@H](C)C(=O)N1)C(=O)N[C@@H](CC(C)C)C(=O)N[C@@H](CO)C(=O)N1CCC[C@H]1C(N)=O [Peptide 9] (H-CSFACYWNLLSP-NH2; linker 1-5 via C6F4(1,4-diyl))",925 ± 70 nM

# Same assay, conditions: supplementary binding validation; averaged over three measurements; ~30-100 nM SUMO-25-109MDM2 as given per peptide; read-out: Averaged KD, competition BLI assay
row,Compound,Kd
1,CC(C)C[C@H](NC(=O)[C@H](CC(N)=O)NC(=O)[C@H](Cc1c[nH]c2ccccc12)NC(=O)[C@H](C)NC(=O)[C@H](CCC(=O)O)NC(=O)[C@H](C)NC(=O)[C@H](Cc1ccccc1)NC(=O)[C@H](C)NC(=O)[C@@H](N)[C@@H](C)O)C(=O)N[C@@H](CC(C)C)C(=O)N[C@@H](CO)C(=O)N1CCC[C@H]1C(N)=O [Peptide 2] (H-TAFAEAWNLLSP-NH2),628 ± 89 nM
2,"CC(C)C[C@H](NC(=O)[C@H](C)NC(=O)[C@@H]1CSc2c(F)c(F)c(c(F)c2F)SC[C@H](NC(=O)[C@H](Cc2ccccc2)NC(=O)[C@H](C)NC(=O)[C@H](C)N)C(=O)N[C@@H](CCC(=O)O)C(=O)N[C@@H](Cc2ccc(O)cc2)C(=O)N[C@@H](Cc2c[nH]c3ccccc23)C(=O)N1)C(=O)N[C@@H](CO)C(=O)N1CCC[C@H]1C(N)=O [Peptide 35] (H-AAFCEYWCALSP-NH2; linker 4-8 via C6F4(1,4-diyl))",316 ± 27 nM
3,CC(C)C[C@H](NC(=O)[C@H](CC(C)C)NC(=O)[C@H](CC(N)=O)NC(=O)[C@H](C)NC(=O)[C@H](Cc1ccc(O)cc1)NC(=O)[C@H](CCC(=O)O)NC(=O)[C@H](C)NC(=O)[C@H](Cc1ccccc1)NC(=O)[C@H](CO)NC(=O)[C@@H](N)[C@@H](C)O)C(=O)N[C@@H](C)C(=O)N1CCC[C@H]1C(N)=O [Peptide 7] (H-TSFAEYANLLAP-NH2),1220 ± 231 nM
4,"CC(C)C[C@H](NC(=O)[C@@H]1CSc2c(F)c(F)c(c(F)c2F)SC[C@H](NC(=O)[C@H](Cc2ccccc2)NC(=O)[C@H](CO)NC(=O)[C@@H](N)[C@@H](C)O)C(=O)N[C@@H](CCC(=O)O)C(=O)N[C@@H](Cc2ccc(O)cc2)C(=O)N[C@@H](Cc2c[nH]c3ccccc23)C(=O)N1)C(=O)N[C@@H](CC(C)C)C(=O)N[C@@H](CO)C(=O)N1CCC[C@H]1C(N)=O [Peptide 12] (H-TSFCEYWCLLSP-NH2; linker 4-8 via C6F4(1,4-diyl))",26 ± 5 nM
5,"CC(C)C[C@@H]1NC(=O)[C@H](CC(N)=O)NC(=O)[C@@H](NC(=O)[C@H](Cc2ccc(O)cc2)NC(=O)[C@H](CCC(=O)O)NC(=O)[C@H](C)NC(=O)[C@H](Cc2ccccc2)NC(=O)[C@H](CO)NC(=O)[C@@H](N)[C@@H](C)O)CSc2c(F)c(F)c(c(F)c2F)SC[C@@H](C(=O)N2CCC[C@H]2C(N)=O)NC(=O)[C@H](CC(C)C)NC1=O [Peptide 15] (H-TSFAEYCNLLCP-NH2; linker 7-11 via C6F4(1,4-diyl))",1150 ± 209 nM
6,"CC(C)C[C@@H]1NC(=O)[C@H](CC(N)=O)NC(=O)[C@H](Cc2c[nH]c3ccccc23)NC(=O)[C@@H](NC(=O)[C@H](CCC(=O)O)NC(=O)[C@H](C)NC(=O)[C@H](Cc2ccccc2)NC(=O)[C@H](CO)NC(=O)[C@@H](N)[C@@H](C)O)CSc2c(F)c(F)c(c(F)c2F)SC[C@@H](C(=O)N[C@@H](CO)C(=O)N2CCC[C@H]2C(N)=O)NC1=O [Peptide 14] (H-TSFAECWNLCSP-NH2; linker 6-10 via C6F4(1,4-diyl))",2020 ± 514 nM
7,CC(C)C[C@H](NC(=O)[C@H](C)NC(=O)[C@H](CC(N)=O)NC(=O)[C@H](Cc1c[nH]c2ccccc12)NC(=O)[C@H](Cc1ccc(O)cc1)NC(=O)[C@H](C)NC(=O)[C@H](C)NC(=O)[C@H](Cc1ccccc1)NC(=O)[C@H](CO)NC(=O)[C@@H](N)[C@@H](C)O)C(=O)N[C@@H](CO)C(=O)N1CCC[C@H]1C(N)=O [Peptide 5] (H-TSFAAYWNALSP-NH2),30 ± 3.8 nM
8,"CC(C)C[C@H](NC(=O)[C@H](CC(N)=O)NC(=O)[C@H](Cc1c[nH]c2ccccc12)NC(=O)[C@@H]1CSc2c(F)c(F)c(c(F)c2F)SC[C@H](NC(=O)[C@@H](N)[C@@H](C)O)C(=O)N[C@@H](Cc2ccccc2)C(=O)N[C@@H](C)C(=O)N[C@@H](CCC(=O)O)C(=O)N1)C(=O)N[C@@H](CC(C)C)C(=O)N[C@@H](CO)C(=O)N1CCC[C@H]1C(N)=O [Peptide 10] (H-TCFAECWNLLSP-NH2; linker 2-6 via C6F4(1,4-diyl))",431 ± 46 nM
9,"CC(C)C[C@H](NC(=O)[C@H](CC(N)=O)NC(=O)[C@@H]1CSc2c(F)c(F)c(c(F)c2F)SC[C@H](NC(=O)[C@H](CO)NC(=O)[C@@H](N)[C@@H](C)O)C(=O)N[C@@H](C)C(=O)N[C@@H](CCC(=O)O)C(=O)N[C@@H](Cc2ccc(O)cc2)C(=O)N1)C(=O)N[C@@H](CC(C)C)C(=O)N[C@@H](CO)C(=O)N1CCC[C@H]1C(N)=O [Peptide 11] (H-TSCAEYCNLLSP-NH2; linker 3-7 via C6F4(1,4-diyl))",1590 ± 315 nM
10,"CC(C)C[C@H](NC(=O)[C@@H]1CSc2c(F)c(F)c(c(F)c2F)SC[C@H](NC(=O)[C@H](C)NC(=O)[C@H](Cc2ccccc2)NC(=O)[C@H](CO)NC(=O)[C@@H](N)[C@@H](C)O)C(=O)N[C@@H](Cc2ccc(O)cc2)C(=O)N[C@@H](Cc2c[nH]c3ccccc23)C(=O)N[C@@H](C)C(=O)N1)C(=O)N[C@@H](CO)C(=O)N[C@@H](C)C(N)=O [Peptide 37] (H-TSFACYWACLSA-NH2; linker 5-9 via C6F4(1,4-diyl))",1.6 ± 1.3 nM
11,CC(C)C[C@H](NC(=O)[C@H](CC(N)=O)NC(=O)[C@H](Cc1c[nH]c2ccccc12)NC(=O)[C@H](Cc1ccc(O)cc1)NC(=O)[C@H](C)NC(=O)[C@H](C)NC(=O)[C@H](Cc1ccccc1)NC(=O)[C@H](CO)NC(=O)[C@H](C)N)C(=O)N[C@@H](CC(C)C)C(=O)N[C@@H](CO)C(=O)N1CCC[C@H]1C(N)=O [Peptide 1] (H-ASFAAYWNLLSP-NH2),10 ± 2.3 nM
12,"CC(C)C[C@@H]1NC(=O)[C@H](CC(C)C)NC(=O)[C@@H](NC(=O)[C@H](Cc2c[nH]c3ccccc23)NC(=O)[C@H](Cc2ccc(O)cc2)NC(=O)[C@H](CCC(=O)O)NC(=O)[C@H](C)NC(=O)[C@H](Cc2ccccc2)NC(=O)[C@H](CO)NC(=O)[C@@H](N)[C@@H](C)O)CSc2c(F)c(F)c(c(F)c2F)SC[C@@H](C(N)=O)NC(=O)[C@H](CO)NC1=O [Peptide 16] (H-TSFAEYWCLLSC-NH2; linker 8-12 via C6F4(1,4-diyl))",3 ± 1.3 nM
13,"CC(C)C[C@@H]1NC(=O)[C@H](C)NC(=O)[C@@H](NC(=O)[C@H](Cc2c[nH]c3ccccc23)NC(=O)[C@H](Cc2ccc(O)cc2)NC(=O)[C@H](CCC(=O)O)NC(=O)[C@H](C)NC(=O)[C@H](Cc2ccccc2)NC(=O)[C@H](CO)NC(=O)[C@@H](N)[C@@H](C)O)CSc2c(F)c(F)c(c(F)c2F)SC[C@@H](C(N)=O)NC(=O)[C@H](CO)NC1=O [Peptide 40] (H-TSFAEYWCALSC-NH2; linker 8-12 via C6F4(1,4-diyl))",0.2 ± 0.1 nM
14,CC(C)C[C@H](NC(=O)[C@H](CC(N)=O)NC(=O)[C@H](Cc1c[nH]c2ccccc12)NC(=O)[C@H](C)NC(=O)[C@H](CCC(=O)O)NC(=O)[C@H](C)NC(=O)[C@H](Cc1ccccc1)NC(=O)[C@H](CO)NC(=O)[C@@H](N)[C@@H](C)O)C(=O)N[C@@H](C)C(=O)N[C@@H](CO)C(=O)N1CCC[C@H]1C(N)=O [Peptide 6] (H-TSFAEAWNLASP-NH2),2140 ± 390 nM
15,CC(C)C[C@H](NC(=O)[C@H](CC(N)=O)NC(=O)[C@H](C)NC(=O)[C@H](Cc1ccc(O)cc1)NC(=O)[C@H](CCC(=O)O)NC(=O)[C@H](C)NC(=O)[C@H](C)NC(=O)[C@H](CO)NC(=O)[C@@H](N)[C@@H](C)O)C(=O)N[C@@H](CC(C)C)C(=O)N[C@@H](CO)C(=O)N1CCC[C@H]1C(N)=O [Peptide 3] (H-TSAAEYANLLSP-NH2),4910 ± 713 nM

# Biological target: MDM2
# Test: not given
# Conditions: KD of single alanine mutant relative to PMI; ref 3 of supplement (Li et al., J. Mol. Biol. 2010); cited from earlier work
row,Compound,KD ratio
1,TSFAEYANLLSP [Peptide W7A],50720
2,TSFAEYWNALSP [Peptide L9A],0.8
3,TSAAEYWNLLSP [Peptide F3A],11750
4,TSFAAYWNLLSP [Peptide E5A],6.7
5,TSFAEYWNLASP [Peptide L10A],227
6,TSFAEYWNLLSA [Peptide P12A],0.7
7,TAFAEYWNLLSP [Peptide S2A],8.4
8,TSFAEAWNLLSP [Peptide Y6A],191
9,TSFAEYWNLLAP [Peptide S11A],1.2
10,ASFAEYWNLLSP [Peptide T1A],1.9
